ChEMBL document CHEMBL5291721, “A preclinical secondary pharmacology resource illuminates target-adverse drug reaction associations of marketed drugs” (Nat Commun, 2023)

Experiments:
[1] = molecular target: T1, Progesterone receptor (Homo sapiens, UniProt P06401)
T1 sequence (P06401 whole entry): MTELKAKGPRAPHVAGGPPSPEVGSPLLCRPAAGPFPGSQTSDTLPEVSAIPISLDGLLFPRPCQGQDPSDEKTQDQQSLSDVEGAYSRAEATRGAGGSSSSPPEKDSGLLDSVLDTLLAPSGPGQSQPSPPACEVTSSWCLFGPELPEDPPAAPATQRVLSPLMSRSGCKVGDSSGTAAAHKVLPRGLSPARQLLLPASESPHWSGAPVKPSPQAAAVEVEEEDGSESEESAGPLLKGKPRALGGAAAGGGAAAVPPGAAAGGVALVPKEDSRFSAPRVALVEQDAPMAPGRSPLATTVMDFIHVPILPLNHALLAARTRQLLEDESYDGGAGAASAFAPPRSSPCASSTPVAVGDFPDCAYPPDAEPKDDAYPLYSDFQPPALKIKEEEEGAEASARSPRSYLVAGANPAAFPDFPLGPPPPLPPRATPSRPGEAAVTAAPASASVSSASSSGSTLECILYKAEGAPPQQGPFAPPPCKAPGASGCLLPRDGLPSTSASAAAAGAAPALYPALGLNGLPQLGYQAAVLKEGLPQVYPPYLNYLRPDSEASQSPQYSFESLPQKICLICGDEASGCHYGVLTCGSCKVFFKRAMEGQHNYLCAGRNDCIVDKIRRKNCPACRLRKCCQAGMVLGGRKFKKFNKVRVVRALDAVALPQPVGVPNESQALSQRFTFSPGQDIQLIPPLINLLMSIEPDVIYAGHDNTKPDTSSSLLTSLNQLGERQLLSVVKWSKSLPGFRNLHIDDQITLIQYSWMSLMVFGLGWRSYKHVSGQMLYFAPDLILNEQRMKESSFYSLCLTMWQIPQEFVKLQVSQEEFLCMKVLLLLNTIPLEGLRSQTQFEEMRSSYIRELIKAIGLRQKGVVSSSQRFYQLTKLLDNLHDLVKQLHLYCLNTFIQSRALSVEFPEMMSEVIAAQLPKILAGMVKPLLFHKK

[2] = molecular target: 5-hydroxytryptamine receptor 2A (Homo sapiens, UniProt P28223)
[3] = molecular target: T2, Androgen receptor (Rattus norvegicus, UniProt P15207); type: functional
T2 sequence (P15207 whole entry): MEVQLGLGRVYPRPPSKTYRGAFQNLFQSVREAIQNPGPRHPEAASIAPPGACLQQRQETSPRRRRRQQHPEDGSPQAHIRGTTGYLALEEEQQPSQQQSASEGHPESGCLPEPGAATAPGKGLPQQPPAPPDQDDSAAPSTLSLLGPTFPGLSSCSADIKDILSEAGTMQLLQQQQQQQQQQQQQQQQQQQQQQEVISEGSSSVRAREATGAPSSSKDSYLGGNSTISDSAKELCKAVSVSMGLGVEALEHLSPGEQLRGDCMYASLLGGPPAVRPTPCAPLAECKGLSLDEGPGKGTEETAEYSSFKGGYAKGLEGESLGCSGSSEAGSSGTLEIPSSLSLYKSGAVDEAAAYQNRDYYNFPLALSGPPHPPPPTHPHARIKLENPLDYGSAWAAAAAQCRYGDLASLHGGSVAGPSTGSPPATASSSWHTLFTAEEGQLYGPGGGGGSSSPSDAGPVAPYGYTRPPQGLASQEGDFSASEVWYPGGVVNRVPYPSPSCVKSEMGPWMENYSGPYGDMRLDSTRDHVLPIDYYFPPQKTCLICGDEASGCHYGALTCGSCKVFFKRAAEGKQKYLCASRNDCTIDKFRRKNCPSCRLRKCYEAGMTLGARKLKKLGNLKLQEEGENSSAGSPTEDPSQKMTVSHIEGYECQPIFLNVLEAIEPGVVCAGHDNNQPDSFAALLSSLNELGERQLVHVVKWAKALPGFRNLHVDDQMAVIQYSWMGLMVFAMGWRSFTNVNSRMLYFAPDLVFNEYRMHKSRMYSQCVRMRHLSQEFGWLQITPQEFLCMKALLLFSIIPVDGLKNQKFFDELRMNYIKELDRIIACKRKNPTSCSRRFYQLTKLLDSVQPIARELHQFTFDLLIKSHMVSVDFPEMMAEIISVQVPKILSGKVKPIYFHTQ

[4] = molecular target: T2, Androgen receptor; type: functional; remark: listed apart in the source
[5] = molecular target: T3, Corticotropin-releasing factor receptor 2 (Homo sapiens, UniProt Q13324)
T3 sequence (Q13324 whole entry): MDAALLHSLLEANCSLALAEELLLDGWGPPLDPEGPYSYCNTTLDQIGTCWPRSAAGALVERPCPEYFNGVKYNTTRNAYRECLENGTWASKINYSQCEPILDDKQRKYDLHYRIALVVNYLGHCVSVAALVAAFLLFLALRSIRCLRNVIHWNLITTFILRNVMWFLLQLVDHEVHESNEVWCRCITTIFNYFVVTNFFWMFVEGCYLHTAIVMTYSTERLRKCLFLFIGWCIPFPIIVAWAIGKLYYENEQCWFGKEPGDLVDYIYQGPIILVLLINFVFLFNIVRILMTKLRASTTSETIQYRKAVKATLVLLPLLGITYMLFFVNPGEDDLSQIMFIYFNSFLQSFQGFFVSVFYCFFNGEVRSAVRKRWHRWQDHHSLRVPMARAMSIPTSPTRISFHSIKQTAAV

[6] = molecular target: Glucagon receptor (Homo sapiens, UniProt P47871)
[7] = molecular target: T4, Neuropeptide Y receptor type 2 (Homo sapiens, UniProt P49146)
T4 sequence (P49146 whole entry): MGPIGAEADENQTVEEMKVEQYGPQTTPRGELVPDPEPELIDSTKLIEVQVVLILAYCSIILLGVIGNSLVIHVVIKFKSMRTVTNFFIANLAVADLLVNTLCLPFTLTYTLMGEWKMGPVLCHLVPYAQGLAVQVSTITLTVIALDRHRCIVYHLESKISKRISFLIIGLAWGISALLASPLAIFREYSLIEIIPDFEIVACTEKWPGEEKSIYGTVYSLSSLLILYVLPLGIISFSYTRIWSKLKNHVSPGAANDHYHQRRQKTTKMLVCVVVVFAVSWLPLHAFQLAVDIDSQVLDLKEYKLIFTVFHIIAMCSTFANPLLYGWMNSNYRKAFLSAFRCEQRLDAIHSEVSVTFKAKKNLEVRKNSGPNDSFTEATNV
Note: assay procedure not described here.

Glucagon receptor, sequence (P47871 whole entry): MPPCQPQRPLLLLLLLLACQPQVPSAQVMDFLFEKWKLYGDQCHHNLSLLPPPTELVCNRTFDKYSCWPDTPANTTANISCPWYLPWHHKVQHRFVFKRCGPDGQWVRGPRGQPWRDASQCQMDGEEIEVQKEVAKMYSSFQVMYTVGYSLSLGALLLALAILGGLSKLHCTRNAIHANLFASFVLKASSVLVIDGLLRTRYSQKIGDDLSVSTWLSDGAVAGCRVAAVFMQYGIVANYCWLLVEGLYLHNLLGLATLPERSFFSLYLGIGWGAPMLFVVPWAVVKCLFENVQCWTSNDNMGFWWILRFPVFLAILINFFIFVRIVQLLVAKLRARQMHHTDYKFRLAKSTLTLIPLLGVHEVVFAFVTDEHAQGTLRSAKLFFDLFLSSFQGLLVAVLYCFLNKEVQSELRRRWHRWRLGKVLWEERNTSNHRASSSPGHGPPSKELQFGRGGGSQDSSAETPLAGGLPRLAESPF
5-hydroxytryptamine receptor 2A, sequence (P28223 whole entry): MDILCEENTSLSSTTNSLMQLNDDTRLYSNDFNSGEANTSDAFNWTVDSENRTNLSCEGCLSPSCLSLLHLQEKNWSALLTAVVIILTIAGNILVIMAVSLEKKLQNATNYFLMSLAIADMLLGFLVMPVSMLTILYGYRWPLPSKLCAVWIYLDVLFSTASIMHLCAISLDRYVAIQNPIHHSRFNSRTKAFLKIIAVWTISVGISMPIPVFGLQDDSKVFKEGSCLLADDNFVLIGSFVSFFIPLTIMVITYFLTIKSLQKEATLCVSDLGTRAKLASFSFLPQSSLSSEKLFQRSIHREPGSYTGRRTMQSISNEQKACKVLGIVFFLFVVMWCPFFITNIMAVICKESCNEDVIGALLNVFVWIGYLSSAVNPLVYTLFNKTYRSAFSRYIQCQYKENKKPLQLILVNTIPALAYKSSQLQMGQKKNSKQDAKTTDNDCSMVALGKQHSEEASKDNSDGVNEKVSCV

| Compound | AC50 [1] [µM] | AC50 [2] [µM] | AC50 [3] [µM] | AC50 [4] [µM] | AC50 [5] [µM] | AC50 [6] [µM] | AC50 [7] [µM] |
| --- | --- | --- | --- | --- | --- | --- | --- |
| CN1CC(=O)N2[C@H](c3ccc4c(c3)OCO4)c3[nH]c4ccccc4c3C[C@@H]2C1=O | > 30 | > 10 | – | – | – | – | – |
| COc1ccc2c(c1)c(CC(=O)OCC(=O)O)c(C)n2C(=O)c1ccc(Cl)cc1 [ACEMETACIN] | – | – | > 30 | > 30 | – | – | – |
| COc1ccc2cccc(CCNC(C)=O)c2c1 [AGOMELATINE] | > 30 | – | – | – | > 30 | > 30 | > 30 |
| CN1CCc2cccc3c2[C@H]1Cc1ccc(O)c(O)c1-3 [APOMORPHINE] | 26 | 0.964 | – | – | > 30 | > 30 | > 30 |
| CC(C)c1c(C(=O)Nc2ccccc2)c(-c2ccccc2)c(-c2ccc(F)cc2)n1CC[C@@H](O)C[C@@H](O)CC(=O)O [ATORVASTATIN] | > 30 | – | – | – | > 30 | > 30 | > 30 |
| NC(CO)C(=O)NNCc1ccc(O)c(O)c1O (stereo not given) [BENSERAZIDE] | > 30 | > 10 | – | – | > 30 | > 30 | > 30 |
| CCCCN1CCCCC1C(=O)Nc1c(C)cccc1C (stereo not given) [BUPIVACAINE] | – | – | > 30 | > 30 | – | – | – |
| CCC(C(=O)O)c1ccc(CC(C)C)cc1 (stereo not given) [BUTIBUFEN] | – | – | > 30 | > 30 | – | – | – |
| CN(C)C(=O)OC1N=C(c2ccccc2)c2cc(Cl)ccc2N(C)C1=O (stereo not given) [CAMAZEPAM] | > 30 | > 10 | – | – | > 30 | > 30 | > 30 |
| CCOc1cc(N)c([N+](=O)[O-])cc1C(=O)NC1CCN(CC2CC=CCC2)CC1 (stereo not given) [CINITAPRIDE] | – | 0.009 | > 30 | > 30 | – | – | – |
| CC(C)(Oc1ccc(C2CC2(Cl)Cl)cc1)C(=O)O (stereo not given) [CIPROFIBRATE] | – | – | > 30 | > 30 | – | – | – |
| COC(=O)[C@H]1[C@@H](OC(=O)c2ccccc2)C[C@@H]2CC[C@H]1N2C [COCAINE] | – | – | > 30 | > 30 | – | – | – |
| [H]/N=C(/N)c1ccc(NCc2nc3cc(C(=O)N(CCC(=O)O)c4ccccn4)ccc3n2C)cc1 [DABIGATRAN] | – | – | > 30 | > 30 | – | – | – |
| CCCCCCCCCCCC[N+](C)(C)CCOc1ccccc1 [DOMIPHEN] | – | 0.14 | – | – | – | – | – |
| CN[C@@H](C)[C@H](O)c1ccccc1 [EPHEDRINE] | > 30 | – | – | – | > 30 | > 30 | > 30 |
| C#CC1(OC(N)=O)CCCCC1 [ETHINAMATE] | – | > 10 | – | – | – | – | – |
| CCNC(C)Cc1cccc(C(F)(F)F)c1 (stereo not given) [FENFLURAMINE] | > 30 | – | – | – | > 30 | > 30 | > 30 |
| O=C1CN=C(c2ccccc2)c2cc(Cl)ccc2N1CC(F)(F)F [HALAZEPAM] | – | – | > 30 | – | – | – | – |
| CCCCCN(C)CCC(O)(P(=O)(O)O)P(=O)(O)O [IBANDRONIC ACID] | > 30 | > 10 | > 30 | > 30 | > 30 | > 30 | > 30 |

| Compound | AC50 [1] [µM] | AC50 [2] [µM] | AC50 [3] [µM] | AC50 [4] [µM] | AC50 [5] [µM] | AC50 [6] [µM] | AC50 [7] [µM] |
| --- | --- | --- | --- | --- | --- | --- | --- |
| C1=Cc2cccc(OCC3CNCCO3)c2C1 (stereo not given) [INDELOXAZINE] | – | – | > 30 | > 30 | – | – | – |
| CCN1CCC[C@H]1CNC(=O)c1cc(S(N)(=O)=O)ccc1OC [LEVOSULPIRIDE] | > 30 | – | – | – | – | – | – |
| Cc1cc(-c2ccccc2)nnc1NCCN1CCOCC1 [MINAPRINE] | > 30 | > 10 | – | – | > 30 | > 30 | > 30 |
| NC(=O)C[S+]([O-])C(c1ccccc1)c1ccccc1 (stereo not given) [MODAFINIL] | > 30 | – | – | – | > 30 | > 30 | > 30 |
| O=C(OCCN1CCOCC1)c1cccnc1Nc1cccc(C(F)(F)F)c1 [MORNIFLUMATE] | – | – | > 30 | > 30 | – | – | – |
| COc1c(C)c2c(c(O)c1C/C=C(\C)CCC(=O)OCCN1CCOCC1)C(=O)OC2 [MYCOPHENOLATE MOFETIL] | – | – | > 30 | > 30 | – | – | – |
| CCCCCCC(C)(C)c1cc(O)c2c(c1)OC(C)(C)C1CCC(=O)CC21 (stereo not given) [NABILONE] | – | – | > 30 | > 30 | – | – | – |
| O=C(O)CCCc1ccccc1 [PHENYLBUTANOIC ACID] | > 30 | > 10 | – | – | > 30 | > 30 | > 30 |
| CC(Cc1ccccc1)NCCC(c1ccccc1)c1ccccc1 (stereo not given) [PRENYLAMINE] | > 30 | 3.38 | – | – | – | – | – |
| CCN(CC)CCOC(=O)c1ccc(N)cc1 [PROCAINE] | > 30 | – | – | – | – | – | – |
| Cc1nc2ccc(CN(C)c3ccc(C(=O)N[C@@H](CCC(=O)O)C(=O)O)s3)cc2c(=O)[nH]1 [RALTITREXED] | – | – | > 30 | > 30 | – | – | – |
| C1COC(NC(C2CC2)C2CC2)=N1 [RILMENIDINE] | > 30 | > 10 | – | – | – | – | – |
| O=C1NCCN1CCN1CCC(c2cn(-c3ccc(F)cc3)c3ccc(Cl)cc23)CC1 [SERTINDOLE] | – | – | > 30 | > 30 | – | – | – |
| Cc1c(C(=O)Nc2ccc(N3C[C@@H](C)O[C@@H](C)C3)nc2)cccc1-c1ccc(OC(F)(F)F)cc1 [SONIDEGIB] | 19.7 | > 10 | – | – | > 30 | > 30 | > 30 |
| COc1ccc(C(=O)N2CCN(c3ccc4c(c3)CCC(=O)N4)CC2)cc1OC [VESNARINONE] | – | – | 2.5 | – | – | – | – |
| CC[C@]1(O)C[C@@H]2CN(CCc3c([nH]c4ccccc34)[C@@](C(=O)OC)(c3cc4c(cc3OC)N(C)[C@H]3[C@@](O)(C(N)=O)[C@H](O)[C@]5(CC)C=CCN6CC[C@]43[C@@H]65)C2)C1 [VINDESINE] | – | – | > 30 | > 30 | – | – | – |
| Cc1ccc(-c2nc3ccc(C)cn3c2CC(=O)N(C)C)cc1 [ZOLPIDEM] | > 30 | > 10 | – | – | > 30 | > 30 | > 30 |
| CN1CCN(C(=O)OC2c3nccnc3C(=O)N2c2ccc(Cl)cn2)CC1 (stereo not given) [ZOPICLONE] | > 30 | > 10 | – | – | > 30 | > 30 | > 30 |
| TOCOFERSOLAN | – | – | > 30 | > 30 | – | – | – |
